Test results taken from ChEMBL document CHEMBL1201862, “PubChem BioAssay data set” (2004).
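48-hour exposure; five concentrations; linearly interpolated endpoints. Here, GI50 denotes the concentration required for 50% inhibition of growth.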 Active and inactive are the calls of the source. Rule as the data show it: active = GI50 up to about 1.1 µM and inactive = higher.

Legend:
Experiment in all cases: NCI-60 cell line screen, 48 h
[1] = test system: MDA-MB-435
[2] = test system: MCF7
[3] = test system: M14
[4] = test system: NCI-H522
[5] = test system: ACHN
[6] = test system: SK-OV-3
[7] = test system: SF-268
[8] = test system: HL-60
[9] = test system: OVCAR-5
[10] = test system: SW-620
[11] = test system: A549
[12] = test system: UACC-257
[13] = test system: CCRF-CEM
[14] = test system: HCT-116
[15] = test system: UACC-62
[16] = test system: NCI/ADR-RES
[17] = test system: CAKI-1
[18] = test system: OVCAR-8
[19] = test system: RPMI-8226
[20] = test system: NCI-H226

Compound	GI50 [1]	GI50 [2]	GI50 [3]	GI50 [4]	GI50 [5]	GI50 [6]	GI50 [7]	GI50 [8]	GI50 [9]	GI50 [10]	GI50 [11]	GI50 [12]	GI50 [13]	GI50 [14]	GI50 [15]	GI50 [16]	GI50 [17]	GI50 [18]	GI50 [19]	GI50 [20]
Cc1ccc(-n2nnc(C(N)=O)c2O)cc1	> 100 µM (inactive)	> 100 µM (inactive)	> 100 µM (inactive)	> 100 µM (inactive)	> 100 µM (inactive)	> 100 µM (inactive)	> 100 µM (inactive)	> 100 µM (inactive)	> 100 µM (inactive)	> 100 µM (inactive)	> 100 µM (inactive)	> 100 µM (inactive)	> 100 µM (inactive)	> 100 µM (inactive)	> 100 µM (inactive)	> 100 µM (inactive)	> 100 µM (inactive)	> 100 µM (inactive)	> 100 µM (inactive)	> 100 µM (inactive)
S=C(Nc1ccc2c(c1)Cc1ccccc1-2)Nc1ccc2c(c1)Cc1ccccc1-2	> 100 µM (inactive)	> 100 µM (inactive)	> 100 µM (inactive)	> 100 µM (inactive)	> 100 µM (inactive)	> 100 µM (inactive)	> 100 µM (inactive)	7.08 µM (inactive)	> 100 µM (inactive)	> 100 µM (inactive)	> 100 µM (inactive)	> 100 µM (inactive)	11.4 µM (inactive)	> 100 µM (inactive)	> 100 µM (inactive)	> 100 µM (inactive)	> 100 µM (inactive)	> 100 µM (inactive)	> 100 µM (inactive)	> 100 µM (inactive)
Clc1ccc(OCC2NC3C=CC32)cn1 (stereo not given)	> 100 µM (inactive)	55 µM (inactive)	> 100 µM (inactive)	> 100 µM (inactive)	> 100 µM (inactive)	> 100 µM (inactive)	> 100 µM (inactive)	> 100 µM (inactive)	> 100 µM (inactive)	> 100 µM (inactive)	> 100 µM (inactive)	> 100 µM (inactive)	56.9 µM (inactive)	> 100 µM (inactive)	> 100 µM (inactive)	> 100 µM (inactive)	> 100 µM (inactive)	> 100 µM (inactive)	34.4 µM (inactive)	> 100 µM (inactive)
NNS(=O)(=O)c1cc(C(=O)O)cc(C(=O)O)c1	> 100 µM (inactive)	> 100 µM (inactive)	> 100 µM (inactive)	> 100 µM (inactive)	> 100 µM (inactive)	> 100 µM (inactive)	> 100 µM (inactive)	> 100 µM (inactive)	> 100 µM (inactive)	> 100 µM (inactive)	> 100 µM (inactive)	> 100 µM (inactive)	28.5 µM (inactive)	> 100 µM (inactive)	> 100 µM (inactive)	> 100 µM (inactive)	> 100 µM (inactive)	> 100 µM (inactive)	> 100 µM (inactive)	> 100 µM (inactive)
C1CSC2=C(S1)SC1=C(S2)SC(=C2SC3=C(SC4=C(SCCS4)S3)S2)S1	> 100 µM (inactive)	> 100 µM (inactive)	> 100 µM (inactive)	> 100 µM (inactive)	> 100 µM (inactive)	> 100 µM (inactive)	> 100 µM (inactive)	23.9 µM (inactive)	> 100 µM (inactive)	> 100 µM (inactive)	> 100 µM (inactive)	> 100 µM (inactive)	> 100 µM (inactive)	> 100 µM (inactive)	> 100 µM (inactive)	> 100 µM (inactive)	> 100 µM (inactive)	> 100 µM (inactive)	> 100 µM (inactive)	> 100 µM (inactive)
NC(CSC(=O)c1ccccc1)C(=O)O (stereo not given)	> 100 µM (inactive)	> 100 µM (inactive)	> 100 µM (inactive)	> 100 µM (inactive)	> 100 µM (inactive)	> 100 µM (inactive)	> 100 µM (inactive)	> 100 µM (inactive)	> 100 µM (inactive)	> 100 µM (inactive)	> 100 µM (inactive)	> 100 µM (inactive)	> 100 µM (inactive)	> 100 µM (inactive)	> 100 µM (inactive)	> 100 µM (inactive)	> 100 µM (inactive)	> 100 µM (inactive)	> 100 µM (inactive)	> 100 µM (inactive)
O=C(Cn1c(=O)oc2ccc(C(=O)c3ccc(F)cc3)cc21)c1ccccc1	> 100 µM (inactive)	> 100 µM (inactive)	> 100 µM (inactive)	> 100 µM (inactive)	> 100 µM (inactive)	> 100 µM (inactive)	> 100 µM (inactive)	> 100 µM (inactive)	> 100 µM (inactive)	> 100 µM (inactive)	55.8 µM (inactive)	> 100 µM (inactive)	> 100 µM (inactive)	> 100 µM (inactive)	> 100 µM (inactive)	> 100 µM (inactive)	> 100 µM (inactive)	> 100 µM (inactive)	> 100 µM (inactive)	> 100 µM (inactive)
COc1cc([N+](=O)[O-])c(S(=O)(=O)O)cc1-n1nc(C(=O)Nc2ccccc2)n[n+]1-c1cc(S(=O)(=O)[O-])c([N+](=O)[O-])cc1OC	85.5 µM (inactive)	> 100 µM (inactive)	> 100 µM (inactive)	> 100 µM (inactive)	93.8 µM (inactive)	> 100 µM (inactive)	> 100 µM (inactive)	> 100 µM (inactive)	> 100 µM (inactive)	> 100 µM (inactive)	> 100 µM (inactive)	> 100 µM (inactive)	> 100 µM (inactive)	> 100 µM (inactive)	42.2 µM (inactive)	> 100 µM (inactive)	> 100 µM (inactive)	> 100 µM (inactive)	> 100 µM (inactive)	> 100 µM (inactive)
C1CCN2CC3CCCN4CCCC(C2C1)C34 (stereo not given)	> 100 µM (inactive)	> 100 µM (inactive)	> 100 µM (inactive)	> 100 µM (inactive)	> 100 µM (inactive)	> 100 µM (inactive)	> 100 µM (inactive)	> 100 µM (inactive)	> 100 µM (inactive)	> 100 µM (inactive)	> 100 µM (inactive)	> 100 µM (inactive)	> 100 µM (inactive)	> 100 µM (inactive)	> 100 µM (inactive)	> 100 µM (inactive)	> 100 µM (inactive)	> 100 µM (inactive)	> 100 µM (inactive)	> 100 µM (inactive)
CC(=O)O[C@H]1C[C@H](O[C@H]2[C@@H](O)C[C@H](O[C@H]3[C@@H](O)C[C@H](O[C@H]4CC[C@@]5(C)[C@H](CC[C@@H]6[C@@H]5CC[C@]5(O)[C@@H](C7=CC(=O)OC7)CC[C@]65O)C4)O[C@@H]3C)O[C@@H]2C)O[C@H](C)[C@H]1O[C@@H]1O[C@H](CO)[C@@H](O)[C@H](O)[C@H]1O	0.624 µM (active)	0.52 µM (active)	0.841 µM (active)	0.0492 µM (active)	0.075 µM (active)	0.555 µM (active)	0.358 µM (active)	0.223 µM (active)	0.455 µM (active)	0.407 µM (active)	0.0581 µM (active)	0.597 µM (active)	0.116 µM (active)	0.243 µM (active)	0.769 µM (active)	0.237 µM (active)	0.132 µM (active)	0.452 µM (active)	0.462 µM (active)	1.29 µM (inactive)
CCN(CC)CC(=O)Nc1c(C(N)=O)nnn1Cc1cc(Cl)c(C(=O)c2ccc(Cl)cc2)c(Cl)c1	18.5 µM (inactive)	17.1 µM (inactive)	16.9 µM (inactive)	18.1 µM (inactive)	29.7 µM (inactive)	21.6 µM (inactive)	19.2 µM (inactive)	15.5 µM (inactive)	19.5 µM (inactive)	19.2 µM (inactive)	22.3 µM (inactive)	18.1 µM (inactive)	18 µM (inactive)	16.5 µM (inactive)	17.6 µM (inactive)	15.8 µM (inactive)	22.5 µM (inactive)	17.7 µM (inactive)	22.3 µM (inactive)	14.4 µM (inactive)
O=C(Oc1ccccn1)c1cc2cc(CCl)ccc2oc1=O	51.3 µM (inactive)	38.5 µM (inactive)	> 100 µM (inactive)	15.2 µM (inactive)	43.8 µM (inactive)	> 100 µM (inactive)	20.3 µM (inactive)	41.8 µM (inactive)	37.5 µM (inactive)	30.8 µM (inactive)	> 100 µM (inactive)	77.1 µM (inactive)	30.4 µM (inactive)	25.8 µM (inactive)	27.2 µM (inactive)	27 µM (inactive)	28.7 µM (inactive)	35.6 µM (inactive)	35.6 µM (inactive)	71.1 µM (inactive)
C/C(=N\N)C(CN1CCCCC1)C(c1ccccc1)c1c(O)c2ccccc2oc1=O (stereo not given)	> 100 µM (inactive)	> 100 µM (inactive)	> 100 µM (inactive)	> 100 µM (inactive)	> 100 µM (inactive)	> 100 µM (inactive)	> 100 µM (inactive)	> 71 µM (inactive)	> 100 µM (inactive)	> 100 µM (inactive)	> 100 µM (inactive)	> 100 µM (inactive)	> 100 µM (inactive)	> 100 µM (inactive)	> 100 µM (inactive)	> 100 µM (inactive)	> 100 µM (inactive)	> 100 µM (inactive)	> 100 µM (inactive)	> 100 µM (inactive)
